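Test compounds were applied to cells in 96-well plates for 48 hours at 5 doses. GI50 is the concentration that inhibits growth by half. TGI: concentration producing complete growth inhibition.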
Legend:
Test in all cases: NCI anticancer screen, dose series, 48 h
[1] = system: OVCAR-5 ovarian
[2] = system: UO-31 renal
[3] = system: HOP-62 NSCLC
[4] = system: MDA-MB-435
[5] = system: SF-295 CNS
[6] = system: IGROV1 ovarian
[7] = system: M14 melanoma
[8] = system: SK-MEL-2 melanoma
[9] = system: RPMI-8226 leukemia
[10] = system: UACC-62 melanoma
[11] = system: MOLT-4 leukemia
[12] = system: OVCAR-8 ovarian
[13] = system: RXF 393 renal
[14] = system: HS 578T breast
[15] = system: NCI-H522 lung
[16] = system: LOX IMVI melanoma
[17] = system: MALME-3M melanoma
[18] = system: HL-60(TB) leukemia

Row | Compound | TGI [1] | TGI [2] | TGI [3] | TGI [4] | TGI [5] | TGI [6] | TGI [7] | TGI [8] | TGI [9] | TGI [10] | TGI [11] | TGI [12] | TGI [13] | TGI [14] | TGI [15] | TGI [16] | TGI [17] | GI50 [3] | GI50 [4] | TGI [18]
1 | C=CCCCC1CCCNC1=S (configuration not stated) | > 100 µM | > 100 µM | > 100 µM | > 100 µM | > 100 µM | > 100 µM | > 100 µM | > 100 µM | > 100 µM | > 100 µM | > 100 µM | > 100 µM | > 100 µM | > 100 µM | > 100 µM |  |  |  |  | 
2 | O=S(=O)(O)c1ccc2c(N=Nc3ccc(F)cc3)c(O)c(S(=O)(=O)O)cc2c1 | > 100 µM | > 100 µM | > 100 µM | > 100 µM | > 100 µM | > 100 µM | > 100 µM | > 100 µM | > 100 µM | > 100 µM | > 100 µM | > 100 µM | > 100 µM | > 100 µM | > 100 µM | > 100 µM | > 100 µM |  |  | 
3 | CCOc1cc2c(cc1O)/C(=N/NS(=O)(=O)c1ccc(C)cc1)C[C@@H]1[C@@H]2CC[C@]2(C)[C@@H](O)CC[C@@H]12 | 46.4 µM | > 100 µM | > 100 µM | > 100 µM | > 100 µM | > 100 µM | > 100 µM | > 100 µM | 16 µM |  | 7.04 µM | > 100 µM | > 100 µM | > 100 µM | > 100 µM | > 100 µM | > 100 µM | 5.14 µM | 0.917 µM | 
4 | C[n+]1cccc2ccc(OC(=O)c3ccccc3)cc21 | > 100 µM | > 100 µM | > 100 µM | > 100 µM | > 100 µM | > 100 µM | > 100 µM | > 100 µM | > 100 µM | > 100 µM | > 100 µM | > 100 µM | > 100 µM | > 100 µM | > 100 µM | > 100 µM | > 100 µM |  |  | 
5 | NC(CCCCNC(=O)CNC(=O)OCc1ccccc1)C(=O)NC(CCCCNC(=O)CNC(=O)OCc1ccccc1)C(=O)NC(CCCCNC(=O)CNC(=O)OCc1ccccc1)C(=O)NC(CCCCNC(=O)CNC(=O)OCc1ccccc1)C(=O)NC(CCCCNC(=O)CNC(=O)OCc1ccccc1)C(=O)NC(CCCCNC(=O)CNC(=O)OCc1ccccc1)C(=O)O (configuration not stated) | > 75 µM | > 75 µM | > 75 µM | > 75 µM |  | > 75 µM | > 75 µM | > 75 µM | > 75 µM | > 75 µM | > 75 µM | > 75 µM |  |  | > 75 µM | > 75 µM | > 75 µM |  |  | > 75 µM
6 | CC(C)CC(NC(=O)C(CCI)Cc1ccccc1)C(=O)Nc1ccccc1 (configuration not stated) | > 100 µM | 84.7 µM |  | > 100 µM | > 100 µM | > 100 µM | > 100 µM | > 100 µM | > 100 µM | > 100 µM | 83.6 µM | > 100 µM | > 100 µM |  | 78.1 µM | > 100 µM | > 100 µM |  |  | 64.6 µM
7 | CC(C)CCc1n[nH]c(=O)n1/N=C\c1ccccc1 | > 100 µM | 86.1 µM | > 100 µM | > 100 µM | > 100 µM | > 100 µM | > 100 µM | > 100 µM |  | > 100 µM | > 100 µM | > 100 µM | > 100 µM | > 100 µM | > 100 µM | > 100 µM | > 100 µM |  |  | 
8 | Cc1ccc(S(=O)(=O)Nn2c(S)c(C#N)c(-c3ccc([N+](=O)[O-])cc3)c(C#N)c2=O)cc1 | > 100 µM |  | > 100 µM | 53.9 µM | > 100 µM | 51 µM | > 100 µM | 80.1 µM | 37.8 µM | 98.2 µM | 47.7 µM | > 100 µM | > 100 µM | 86.5 µM | 30.2 µM | 28.5 µM | > 100 µM |  |  | 
9 | O=C(/C=C/c1ccc(Cl)cc1)c1cccs1 |  | 31.9 µM | 89.8 µM | 25.9 µM | 38.5 µM | 75.3 µM | 36.3 µM | > 100 µM | 8.29 µM | 49.2 µM | 52.8 µM | 56.2 µM |  | > 100 µM |  | 24.3 µM | 36.7 µM |  |  | 29.8 µM
10 | CC1(C)OC(=O)C2(O1)C(=O)C1CCCCC12 (configuration not stated) | > 100 µM | > 100 µM | > 100 µM | > 100 µM | > 100 µM | > 100 µM | > 100 µM | > 100 µM | > 100 µM | > 100 µM | > 100 µM | > 100 µM | > 100 µM | > 100 µM | > 100 µM |  | > 100 µM |  |  | 
11 | O=C(Cc1ccccc1)NCCCN(CCCCN(CCCNC(=O)Cc1ccccc1)C(=O)OCc1ccccc1)C(=O)OCc1ccccc1 | > 100 µM | 6.42 µM | > 100 µM | > 100 µM | > 100 µM | > 100 µM | > 100 µM | > 100 µM | > 100 µM | > 100 µM | > 100 µM | > 100 µM | > 100 µM | > 100 µM | 12.2 µM | > 100 µM |  |  |  | 
12 | Nc1ncnc2c1cnn2Cc1cn(COCC(O)CO)nn1 (configuration not stated) | > 100 µM | > 100 µM | > 100 µM | > 100 µM | > 100 µM | > 100 µM | > 100 µM | > 100 µM |  | > 100 µM |  | > 100 µM |  | 32.8 µM | 30.8 µM | > 100 µM |  |  |  | > 100 µM
13 | COC(=O)C1CCC(=O)N1C(c1ccccc1)c1cc(OC)c(OC)c(OC)c1 (configuration not stated) | > 100 µM | > 100 µM | > 100 µM | 59.7 µM | > 100 µM | > 100 µM | > 100 µM |  |  | > 100 µM | 89.3 µM | > 100 µM | > 100 µM |  | > 100 µM | > 100 µM | > 100 µM |  |  | 57.8 µM
14 | Oc1ccc(/C=C/c2ccc3cccc(O)c3n2)cc1O | 46.3 µM | 7.71 µM | 84.6 µM | > 100 µM | 76.9 µM | > 100 µM | 7.46 µM | 36 µM | 78 µM | 23.8 µM | 21.5 µM | > 100 µM | 7.4 µM | > 100 µM |  | 16.5 µM |  |  |  | > 100 µM

Source: PubChem BioAssay (NCI)
